# Measured values as given in PubChem BioAssay AID1259407 (Chemical Carcinogenesis Research Information System (CCRIS), 2018).
# Active and inactive are the calls of the source. No rule for the calls is given here.
# System: CCRIS mutagenicity, Ames/micronucleus/aberration tests
# Assay: CCRIS mutagenicity studies
# [1] = Test System: AMES SALMONELLA TYPHIMURIUM, Strain/Indicator: TA98, Metabolic Activation: NONE, Method: STANDARD PLATE
# [2] = Test System: AMES SALMONELLA TYPHIMURIUM, Strain/Indicator: TA100, Metabolic Activation: NONE, Method: PREINCUBATION
# [3] = Test System: AMES SALMONELLA TYPHIMURIUM, Strain/Indicator: TA100, Metabolic Activation: NONE, Method: STANDARD PLATE
smiles,measurement,setting,value
O=C(Cl)c1ccc([N+](=O)[O-])cc1,mutagenic call,"End Point: In vitro chromosomal aberrations, Test System: Chinese hamster lung (CHL/IU) cells, Metabolic Activation: None",inactive; negative. precipitation observed in culture medium at all doses tested.
same,mutagenic call,"End Point: In vitro chromosomal aberrations, Test System: Chinese hamster lung (CHL/IU) cells, Metabolic Activation: Rat, Liver, S9, Phenobarbital and 5,6-benzoflavone",inactive; negative. precipitation observed in culture medium at all doses tested.
same,mutagenic call,"Test System: AMES SALMONELLA TYPHIMURIUM, Strain/Indicator: TA98, Metabolic Activation: HAMSTER, LIVER, S-9, AROCLOR 1254 (10%), Method: PREINCUBATION",active; positive
same,mutagenic call,"Test System: AMES SALMONELLA TYPHIMURIUM, Strain/Indicator: TA98, Metabolic Activation: HAMSTER, LIVER, S-9, AROCLOR 1254, Method: STANDARD PLATE",inactive; negative
same,mutagenic call,[1],inactive; negative
same,mutagenic call,"Test System: AMES SALMONELLA TYPHIMURIUM, Strain/Indicator: TA98, Metabolic Activation: RAT, LIVER, S-9, AROCLOR 1254 (10%), Method: PREINCUBATION",active; positive
same,mutagenic call,"Test System: AMES SALMONELLA TYPHIMURIUM, Strain/Indicator: TA98, Metabolic Activation: RAT, LIVER, S-9, AROCLOR 1254, Method: STANDARD PLATE",inactive; negative
same,mutagenic call,"Test System: AMES SALMONELLA TYPHIMURIUM, Strain/Indicator: TA98, Metabolic Activation: RAT, LIVER, S-9, KANECHLOR 500, Method: PREINCUBATION",inactive; negative
same,mutagenic call,"Test System: AMES SALMONELLA TYPHIMURIUM, Strain/Indicator: TA100, Metabolic Activation: HAMSTER, LIVER, S-9, AROCLOR 1254 (10%), Method: PREINCUBATION",active; positive
same,mutagenic call,"Test System: AMES SALMONELLA TYPHIMURIUM, Strain/Indicator: TA100, Metabolic Activation: HAMSTER, LIVER, S-9, AROCLOR 1254, Method: STANDARD PLATE",inactive; negative
same,mutagenic call,[2],active; positive
same,mutagenic call,[3],inactive; negative
same,mutagenic call,"Test System: AMES SALMONELLA TYPHIMURIUM, Strain/Indicator: TA100, Metabolic Activation: RAT, LIVER, S-9, AROCLOR 1254 (10%), Method: PREINCUBATION",active; positive
same,mutagenic call,"Test System: AMES SALMONELLA TYPHIMURIUM, Strain/Indicator: TA100, Metabolic Activation: RAT, LIVER, S-9, AROCLOR 1254, Method: STANDARD PLATE",inactive; negative
same,mutagenic call,"Test System: AMES SALMONELLA TYPHIMURIUM, Strain/Indicator: TA100, Metabolic Activation: RAT, LIVER, S-9, KANECHLOR 500, Method: PREINCUBATION",active; positive
same,mutagenic call,"Test System: AMES SALMONELLA TYPHIMURIUM, Strain/Indicator: TA1535, Metabolic Activation: HAMSTER, LIVER, S-9, AROCLOR 1254 (10%), Method: PREINCUBATION",active; positive
same,mutagenic call,"Test System: AMES SALMONELLA TYPHIMURIUM, Strain/Indicator: TA1535, Metabolic Activation: HAMSTER, LIVER, S-9, AROCLOR 1254, Method: STANDARD PLATE",inactive; negative
same,mutagenic call,"Test System: AMES SALMONELLA TYPHIMURIUM, Strain/Indicator: TA1535, Metabolic Activation: NONE, Method: PREINCUBATION",active; positive
same,mutagenic call,"Test System: AMES SALMONELLA TYPHIMURIUM, Strain/Indicator: TA1535, Metabolic Activation: NONE, Method: STANDARD PLATE",inactive; negative
same,mutagenic call,"Test System: AMES SALMONELLA TYPHIMURIUM, Strain/Indicator: TA1535, Metabolic Activation: RAT, LIVER, S-9, AROCLOR 1254 (10%), Method: PREINCUBATION",active; positive
same,mutagenic call,"Test System: AMES SALMONELLA TYPHIMURIUM, Strain/Indicator: TA1535, Metabolic Activation: RAT, LIVER, S-9, AROCLOR 1254, Method: STANDARD PLATE",inactive; negative
same,mutagenic call,"Test System: AMES SALMONELLA TYPHIMURIUM, Strain/Indicator: TA1537, Metabolic Activation: HAMSTER, LIVER, S-9, AROCLOR 1254 (10%), Method: PREINCUBATION",active; positive
same,mutagenic call,"Test System: AMES SALMONELLA TYPHIMURIUM, Strain/Indicator: TA1537, Metabolic Activation: HAMSTER, LIVER, S-9, AROCLOR 1254, Method: STANDARD PLATE",inactive; negative
same,mutagenic call,"Test System: AMES SALMONELLA TYPHIMURIUM, Strain/Indicator: TA1537, Metabolic Activation: NONE, Method: PREINCUBATION",active; positive
same,mutagenic call,"Test System: AMES SALMONELLA TYPHIMURIUM, Strain/Indicator: TA1537, Metabolic Activation: NONE, Method: STANDARD PLATE",inactive; negative
same,mutagenic call,"Test System: AMES SALMONELLA TYPHIMURIUM, Strain/Indicator: TA1537, Metabolic Activation: RAT, LIVER, S-9, AROCLOR 1254 (10%), Method: PREINCUBATION",active; positive
same,mutagenic call,"Test System: AMES SALMONELLA TYPHIMURIUM, Strain/Indicator: TA1537, Metabolic Activation: RAT, LIVER, S-9, AROCLOR 1254, Method: STANDARD PLATE",inactive; negative
same,mutagenic call,"Test System: AMES SALMONELLA TYPHIMURIUM, Strain/Indicator: TA1538, Metabolic Activation: HAMSTER, LIVER, S-9, AROCLOR 1254, Method: STANDARD PLATE",inactive; negative
same,mutagenic call,"Test System: AMES SALMONELLA TYPHIMURIUM, Strain/Indicator: TA1538, Metabolic Activation: NONE, Method: STANDARD PLATE",inactive; negative
same,mutagenic call,"Test System: AMES SALMONELLA TYPHIMURIUM, Strain/Indicator: TA1538, Metabolic Activation: RAT, LIVER, S-9, AROCLOR 1254, Method: STANDARD PLATE",inactive; negative
same,mutagenic call,"Test System: Ames Salmonella typhimurium, Strain/Indicator: TA100, Metabolic Activation: Rat, Liver, S9, Sodium phenobarbital and 5,6-benzoflavone (10%), Method: Preincubation",active; positive
same,mutagenic call,"Test System: Ames Salmonella typhimurium, Strain/Indicator: TA1535, Metabolic Activation: None, Method: Preincubation",active; positive
same,mutagenic call,"Test System: Ames Salmonella typhimurium, Strain/Indicator: TA1535, Metabolic Activation: Rat, Liver, S9, Sodium phenobarbital and 5,6-benzoflavone (10%), Method: Preincubation",active; positive
same,mutagenic call,"Test System: Ames Salmonella typhimurium, Strain/Indicator: TA1537, Metabolic Activation: None, Method: Preincubation",inactive; negative
same,mutagenic call,"Test System: Ames Salmonella typhimurium, Strain/Indicator: TA1537, Metabolic Activation: Rat, Liver, S9, Sodium phenobarbital and 5,6-benzoflavone (10%), Method: Preincubation",inactive; negative
same,mutagenic call,"Test System: E. coli, Strain/Indicator: WP2uvrA/pKM101, Metabolic Activation: None, Method: Preincubation",inactive; negative
same,mutagenic call,"Test System: E. coli, Strain/Indicator: WP2uvrA/pKM101, Metabolic Activation: Rat, Liver, S9, Sodium phenobarbital and 5,6-benzoflavone (10%), Method: Preincubation",inactive; negative
same,mutagenic call,"Test System: MOUSE LYMPHOMA, Strain/Indicator: L5178Y (TK+/TK-), Metabolic Activation: NONE, Method: SUSPENSION/PLATE",inactive; negative. reevaluation of results: negative
same,mutagenic call,"Test System: MOUSE LYMPHOMA, Strain/Indicator: L5178Y (TK+/TK-), Metabolic Activation: RAT, LIVER, S-9, AROCLOR 1254, Method: SUSPENSION/PLATE",inactive; negative. reevaluation of results: negative
CC12OOC1(CO)Oc1ccccc12 (centres undefined),mutagenic call,[2],inactive; negative
CO[C@]1(CC[C@@H](C)CO[C@@H]2O[C@H](CO)[C@@H](O)[C@H](O)[C@H]2O)O[C@H]2C[C@H]3[C@@H]4CC=C5C[C@@H](O[C@@H]6O[C@H](CO)[C@@H](O[C@@H]7O[C@@H](C)[C@H](O)[C@@H](O)[C@H]7O)[C@H](O)C6O[C@@H]6O[C@@H](C)[C@H](O)[C@@H](O)[C@H]6O)CC[C@]5(C)[C@H]4CC[C@]3(C)[C@H]2[C@@H]1C (some centres undefined),mutagenic call,[1],inactive; negative
same,mutagenic call,"Test System: AMES SALMONELLA TYPHIMURIUM, Strain/Indicator: TA98, Metabolic Activation: RAT, LIVER, S-9, PHENOBARBITAL, Method: STANDARD PLATE",inactive; negative
same,mutagenic call,[3],inactive; negative
same,mutagenic call,"Test System: AMES SALMONELLA TYPHIMURIUM, Strain/Indicator: TA100, Metabolic Activation: RAT, LIVER, S-9, PHENOBARBITAL, Method: STANDARD PLATE",inactive; negative
